The values below come from patent US20210128561A1, “MRGX Receptor Antagonists” (Rheinische-Friedrich-Wilhelms-Universität Bonn, priority 2019, published 2021).

One experiment deals with T1, human MrgX4 L83S (Homo sapiens, UniProt Q96LA9, L83S).
T1 construct: expressed in transfected cells; host or cells: CHO beta-arrestin cells
Nature of the experiment: β-arrestin assay (CHO β-arrestin human MrgX4 L83S). It counts as cell-based. Particulars: for % inhibition ± SEM: test concentration not given.

Another experiment addresses T2, human wildtype MrgX2 (Homo sapiens, UniProt Q96LB1).
T2 construct: expressed in transfected cells; host or cells: LN229 cells
T2 sequence (Q96LB1 1-330): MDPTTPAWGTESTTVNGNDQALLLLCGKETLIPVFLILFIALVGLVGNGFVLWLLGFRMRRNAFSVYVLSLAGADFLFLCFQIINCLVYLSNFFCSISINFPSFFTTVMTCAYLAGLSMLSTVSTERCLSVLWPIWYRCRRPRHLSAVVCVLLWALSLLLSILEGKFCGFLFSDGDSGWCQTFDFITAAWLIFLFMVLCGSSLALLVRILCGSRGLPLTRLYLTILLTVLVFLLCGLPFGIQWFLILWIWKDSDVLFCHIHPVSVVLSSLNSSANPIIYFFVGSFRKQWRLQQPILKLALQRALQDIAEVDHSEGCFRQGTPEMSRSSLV
Kind of experiment: calcium assay (LN229 cells recombinantly expressing human wildtype MrgX2). It counts as cell-based. Particulars: for % inhibition ± SEM: test concentration not given.

T1 sequence (Q96LA9 whole entry L83S): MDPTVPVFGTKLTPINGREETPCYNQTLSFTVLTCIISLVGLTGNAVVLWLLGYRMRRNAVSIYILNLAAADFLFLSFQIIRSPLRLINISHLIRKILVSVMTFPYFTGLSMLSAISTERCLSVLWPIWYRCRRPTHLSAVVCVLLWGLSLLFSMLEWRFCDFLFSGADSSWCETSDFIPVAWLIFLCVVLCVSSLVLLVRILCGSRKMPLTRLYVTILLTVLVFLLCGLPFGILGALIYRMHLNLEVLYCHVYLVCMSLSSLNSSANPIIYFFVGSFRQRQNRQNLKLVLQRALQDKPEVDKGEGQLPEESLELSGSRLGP

In general, IC50 refers to the concentration that gives 50% inhibition. Molecule `O=c1c2c([nH]c3nc4ccccc4n13)CCCC2` [B-55] had a 50% inhibitory concentration (IC50) at human MrgX4 L83S of 5.66 ± 1.15 µM. Besides, at human wildtype MrgX2, the IC50 was above 100 µM and the “% inhibition ± SEM” value is reported as 20%.

On to `CCCCc1c(O)[nH]c2nc3ccccc3n2c1=O` [A-25], for which, on human MrgX4 L83S, the IC50 was above 100 µM and the “% inhibition ± SEM” value was 22%.

Regarding `CCCc1[nH]c2nc3ccccc3n2c(=O)c1CC` [B-43], at human MrgX4 L83S, inhibition was half-maximal at 0.278 ± 0.042 µM (IC50).

With `CC(C)c1cc(=O)n2c(nc3cc4ccccc4cc32)[nH]1` [B-63], on human MrgX4 L83S, the IC50 was above 100 µM and the “% inhibition ± SEM” value stood at 6%.

`CCCc1[nH]c2nc3ccccc3n2c(=O)c1CCC` [B-45]: the IC50 on human MrgX4 L83S stood at 0.214 ± 0.032 µM. In addition, at human wildtype MrgX2, the IC50 was above 100 µM and the “% inhibition ± SEM” value stood at 89%.

Consider `CCc1c(O)[nH]c2nc3ccccc3n2c1=O` [A-24], for which, at human MrgX4 L83S, the IC50 was above 100 µM and the “% inhibition ± SEM” value was determined as 16%. On human wildtype MrgX2, the IC50 was above 100 µM and the “% inhibition ± SEM” value is 2%.

As for `CCc1c(C)[nH]c2nc3ccccc3n2c1=O` [A-9], the IC50 on human MrgX4 L83S is 3.23 ± 0.36 µM; at human wildtype MrgX2, 0.662 ± 0.102 µM.

For the molecule `Cc1[nH]c2nc3ccccc3n2c(=O)c1CCc1ccccc1` [A-14], at human MrgX4 L83S, the concentration for half-maximal inhibition (IC50) was above 10 µM and the “% inhibition ± SEM” value is recorded as 19%.

For the molecule `CCc1c(C)n(C)c2nc3ccccc3n2c1=O` [A-30], at human MrgX4 L83S, the IC50 is above 10 µM and the “% inhibition ± SEM” value was 2%. Besides, on human wildtype MrgX2, the IC50 is above 100 µM and the “% inhibition ± SEM” value stood at 31%.

For the molecule `Cc1cc(=O)n2cc[nH]c2n1` [A-1], on human MrgX4 L83S, the IC50 is above 100 µM and the “% inhibition ± SEM” value is given as 4%.

For the molecule `CCc1c(-c2cccs2)[nH]c2nc3ccccc3n2c1=O` [C-80], at human MrgX4 L83S, the IC50 was above 10 µM and the “% inhibition ± SEM” value was 34%.

Take `Cc1cc(=O)n2c(nc3cc4ccccc4cc32)[nH]1` [B-62]: at human MrgX4 L83S, the IC50 was above 100 µM and the “% inhibition ± SEM” value is recorded as 18%.

Turning to `Cc1cc(=O)n2c3ccccc3nc2n1Cc1ccccc1` [A-5], on human MrgX4 L83S, the 50% inhibitory concentration (IC50) is above 10 µM and the “% inhibition ± SEM” value was −5%.

`CC(C)(C)c1cc(=O)n2c(nc3ccccc32)[nH]1` [A-18]: at human MrgX4 L83S, the concentration for half-maximal inhibition (IC50) was above 100 µM and the “% inhibition ± SEM” value was found to be 48%.

As for `NC1=NC=NC2Nc3ccccc3N12` (stereo not shown) [B-66], on human MrgX4 L83S, the IC50 was above 100 µM and the “% inhibition ± SEM” value was 4%.

As for `CCc1c(-c2ccc(OC)cc2)[nH]c2nc3ccccc3n2c1=O` [B-46], the midpoint of inhibition on human MrgX4 L83S, the IC50, lay at 0.25 ± 0.061 µM.

`CSc1cc(C(C)C)nc2nc3ccccc3n12` [B-61]: on human MrgX4 L83S, the IC50 is above 10 µM and the “% inhibition ± SEM” value came to 2%.

For the molecule `CNCCc1c(C)[nH]c2nc3ccccc3n2c1=O` [C-68], on human MrgX4 L83S, the IC50 is above 100 µM and the “% inhibition ± SEM” value was found to be 8%.

For the molecule `CCOC(=O)c1cnc2[nH]c3ccccc3n2c1=O` [A-3], at human MrgX4 L83S, the IC50 was above 100 µM and the “% inhibition ± SEM” value stood at 25%.

Consider `Cc1[nH]c2nc3ccccc3n2c(=O)c1CCN=[N+]=[N-]` [C-69], for which, at human MrgX4 L83S, the concentration for half-maximal inhibition (IC50) is above 100 µM and the “% inhibition ± SEM” value was 9%.

With `COCCc1c(C)[nH]c2nc3ccccc3n2c1=O` [B-35], on human MrgX4 L83S, the IC50 was above 10 µM and the “% inhibition ± SEM” value turned out to be 20%.

In the case of `CCOC(=O)Cc1cc(=O)n2c(nc3ccccc32)[nH]1` [A-29], at human MrgX4 L83S, the concentration for half-maximal inhibition (IC50) was above 100 µM and the “% inhibition ± SEM” value was −33%.

As for `Cc1cc(=S)n2c(nc3ccccc32)[nH]1` [B-57], at human MrgX4 L83S, the half-maximal inhibitory concentration (IC50) is above 100 µM and the “% inhibition ± SEM” value is recorded as −4%.

Turning to `Cc1cc(=O)n2c3ccccc3nc2n1Cc1ccc(Cl)cc1` [A-6], on human MrgX4 L83S, the IC50 is above 10 µM and the “% inhibition ± SEM” value was 14%.

Regarding `O=c1cc(-c2ccccc2)[nH]c2nc3ccccc3n12` [A-20], on human MrgX4 L83S, the IC50 is above 100 µM and the “% inhibition ± SEM” value was −2%.

Consider `O=c1ccn2c(n1)[nH]c1ccccc12` [B-64, Benzo[4,5]imidazo[1,2-a]pyrimidin-2(10H)-one], for which, on human MrgX4 L83S, the IC50 is above 100 µM and the “% inhibition ± SEM” value is on record as 0%.

Consider `N#CCCc1c(-c2ccccc2)[nH]c2nc3ccccc3n2c1=O` [A-22], for which, at human MrgX4 L83S, the IC50 is above 100 µM and the “% inhibition ± SEM” value is 2%.

Turning to `COCc1cc(=O)n2c(nc3ccccc32)[nH]1` [A-26], on human MrgX4 L83S, the half-inhibitory concentration (IC50) was above 100 µM and the “% inhibition ± SEM” value was −13%.

On to `Cc1cc(=O)n2c(n1)oc1ccccc12` [B-59, 2-Methyl-4H-benzo[4,5]oxazolo[3,2-a]pyrimidin-4-one], for which, at human MrgX4 L83S, the 50% inhibitory concentration (IC50) is above 100 µM and the “% inhibition ± SEM” value is reported as 13%.

As for `Cc1[nH]c2nc3ccccc3n2c(=O)c1CCC#N` [A-16], on human MrgX4 L83S, the IC50 is above 100 µM and the “% inhibition ± SEM” value is 26%.

For `Cc1[nH]c2nc3ccccc3n2c(=O)c1CCC(C)C` [A-12], at human MrgX4 L83S, the IC50 is above 10 µM and the “% inhibition ± SEM” value is reported as −25%.

As for “2-Methyl-4H-benzo[4,5]thiazolo[3,2-a]pyrimidin-4-one [B-60]”, on human MrgX4 L83S, the IC50 was above 100 µM and the “% inhibition ± SEM” value is reported as 14%.

For `O=C(O)Cc1cc(=O)n2c(nc3ccccc32)[nH]1` [A-27], on human MrgX4 L83S, the half-maximal inhibitory concentration (IC50) was above 100 µM and the “% inhibition ± SEM” value is −18%.

On human MrgX4 L83S, `Cc1[nH]c2nc3ccccc3n2c(=O)c1CCCl` [C-67] yielded a half-maximal inhibitory concentration (IC50) of 8.04 ± 1.63 µM.

As to `CCc1c(C(C)C)nc2n(Cc3ccccc3)c3cc(C)ccc3n2c1=O` [C-73], at human MrgX4 L83S, the half-inhibitory concentration (IC50) is above 10 µM and the “% inhibition ± SEM” value came to 40%.

For `CCc1c(C)nc2[nH]ccn2c1=O` [B-31], on human MrgX4 L83S, the concentration for half-maximal inhibition (IC50) is above 100 µM and the “% inhibition ± SEM” value amounted to 40%.

On to `CCCCc1c(C)[nH]c2nc3ccccc3n2c1=O` [A-11], for which, at human MrgX4 L83S, the IC50 is above 100 µM and the “% inhibition ± SEM” value amounted to 37%.

In the case of `O=c1ccsc2nc3ccccc3n12` [B-58, 4H-benzo[4,5]imidazo[2,1-b][1,3]thiazin-4-one], at human MrgX4 L83S, the IC50 was above 100 µM and the “% inhibition ± SEM” value is −44%.

The molecule `CCc1c(C2CC2)[nH]c2nc3ccccc3n2c1=O` [C-77] showed a half-maximal inhibitory concentration (IC50) against human MrgX4 L83S of 1.18 ± 0.33 µM.

Take `COC(=O)Cc1cc(=O)n2c(nc3ccccc32)[nH]1` [A-28]: at human MrgX4 L83S, the IC50 was above 100 µM and the “% inhibition ± SEM” value came out at 4%.

As for `Cc1[nH]c2nc3ccccc3n2c(=O)c1Cc1ccccc1` [A-13], on human MrgX4 L83S, the IC50 was above 100 µM and the “% inhibition ± SEM” value was determined as 24%.

In the case of `CCc1c(C(C)(C)C)[nH]c2nc3ccccc3n2c1=O` [C-76], half-maximal inhibition on human MrgX4 L83S (IC50) was put at 0.349 ± 0.065 µM.

`CCc1c(C(C)C)[nH]c2nc3ccc(Cl)cc3n2c1=O` [C-85] gave an IC50 against human MrgX4 L83S of 0.223 ± 0.019 µM.

Take `CCCn1c(C)cc(=O)n2c3ccccc3nc12` [A-4]: at human MrgX4 L83S, the IC50 is above 100 µM and the “% inhibition ± SEM” value is 35%.

For `Cc1cc(=O)n2c3ccccc3nc2n1CC#N` [A-7], on human MrgX4 L83S, the half-maximal inhibitory concentration (IC50) was above 100 µM and the “% inhibition ± SEM” value turned out to be 43%.

In the case of `COC(=O)c1cc(=O)[nH]c2nc3ccccc3n12` [B-65], at human MrgX4 L83S, the IC50 was above 100 µM and the “% inhibition ± SEM” value was determined as 48%.

On to `O=C(O)c1cnc2[nH]c3ccccc3n2c1=O` [B-32], for which, at human MrgX4 L83S, the IC50 is above 100 µM and the “% inhibition ± SEM” value is 45%.

For `O=c1ccnc2[nH]c3ccccc3n12` [A-2], on human MrgX4 L83S, the IC50 was above 100 µM and the “% inhibition ± SEM” value was 18%.

On to `CCc1c(C(C)C)nc2n(Cc3ccccc3)c3ccc(C)cc3n2c1=O` [C-72], for which, at human MrgX4 L83S, the IC50 is above 10 µM and the “% inhibition ± SEM” value was 39%.

As to `Cc1cc(=O)n2c(n1)[nH]c1ccccc12` [B-33], on human MrgX4 L83S, the IC50 is above 100 µM and the “% inhibition ± SEM” value came out at 24%.
